Test [1] concerns hKv4.3 expressing C. elegans strain UG 1611. Kind of test: Drinking assay (uptake of Calcein AM) in hKv4.3 expressing exp-2 strain UG 1611. Type of test: in vivo. The settings on record: 0.3 mM, exp-2 without compound = 100%, UG 1611 without compound 114%. The source says:
(§1) The hKv4.3 expressing C. elegans strain UG 1611 (Example IV) was investigated for drinking behaviour by determining the uptake over time of the fluorescent dye Calcein AM, essentially as described in Examples 2 and 3 of the International application PCT/IB00/00575 by Applicant, using 96 well plates containing 100 nematodes/well. As a comparison, the exp-2(sa26as1426)V background was used.
(§2) The influence of mM 4-aminopyridine, a known general antagonist of voltage-gated potassium channel, on drinking behaviour of the hKv4.3 expressing C. elegans strain UG 1611 (Example IV) was determined by measuring the uptake of the fluorescent dye Calcein AM with and without the presence of 0.3 mM 4aminopyridine, essentially as described in Examples 2 and 3 of the International application PCT/IB00/00575 by Applicant.

Test [2] concerns exp-2 background. In words: Drinking assay (uptake of Calcein AM) in exp-2 background. The settings on record: 0.3 mM, exp-2 without compound = 100%. The test is classed as in vivo, C. elegans.
Source text: as §1, §2

For test [3], the system named is unc-119; hKv4.3. In words: Pharynx pumping rate of unc-119; hKv4.3 nematode. Type of test: in vivo, C. elegans. To be noted: 500 mM, 3 hrs.
Test [4] relates to hKv4.3 expressing C. elegans strain UG 1598. Kind of test: Pharynx pumping rate of hKv4.3 expressing pha-1 strain UG 1598. The test is classed as in vivo. The protocol: The influence of 4-aminopyridine, a known general antagonist of voltage-gated potassium channel, on the pharynx pumping rate of the hKv4.3 expressing C. elegans strain UG 1598 (Example III) was determined as follows.
(§3) The nematodes were cultivated to L4 stage on an agar plate, and then kept overnight at 20° C. to reach the adult stage. The worms where then transferred to agar plates containing 0,5 mM 4-aminopyridine in DMSO. After 3 hours at 20° C., the number of pharynx “pumps” (contractions) per 30 seconds were determined visually using a stopwatch. As a comparison, the influence of 4-aminopyridine on an N2 background was also determined, in essentially the same manner.

Test [5] concerns exp-2 background. In words: Pharynx pumping rate of original exp-2 background (comparison). The settings on record: 2 mM, 3 hours at 20° C., FIG. 5. Type of test: in vivo, C. elegans. The method, then:
The nematodes were cultivated to L4 stage on an agar plate, and then kept overnight at 20° C. to reach the adult stage. The worms where then transferred to agar plates containing 2 mM 4-aminopyridine in DMSO. After 3 hours at 20° C., the number of pharynx “pumps” (contractions) per 30 seconds were determined visually using a stopwatch. As a comparison, the influence of 4-aminopyridine on the original exp-2 background was also determined, in essentially the same manner.

Test [6] relates to N2 background. In words: Pharynx pumping rate of N2 background (comparison). Type of test: in vivo, C. elegans. To be noted: 0,5 mM, 3 hours at 20° C., FIG. 4. The method, then: as §3
The test system of test [7] is hKv4.3-expressing pha-1 strain UG 1598. Kind of test: Electropharyngeogram (EPG) of hKv4.3-expressing pha-1 strain UG 1598. Type of test: in vivo, C. elegans. The settings on record: 215 mM. The method, then:
An electropharyngeogram of the human Kv4.3 expressing strain UG 1547 was recorded using an Axopatch-1D amplifier (Axon instruments), essentially as described by Raizen and Avery, supra, and is shown in FIG. 1. For comparison, reference is made to the EPG's for wild-type and exp-2 shown by Davis, Dent and Avery, Worm Breeders Gazette 14(4); 72 (1996), as well as the EPG's for wild-type shown in Raizen and Avery.
The influence of 4-aminopyridine on the EPG of a hKv4.3-expressing strain was studied using the hKv4.3-expressing pha-1 strain UG 1598 of Example III. As mentioned in Example VI, exposing this strain UG 1598 to 4-aminopyridine leads to a reduction of pharynx pumping.
The EPG's for UG 1598 (using 4 pharynxes) were recorded essentially as described in Example XII. The EPG's of UG 1598 without 4-aminopyridine were recorded during a period of 5 minutes, upon which the pharynxes were exposed to 215 mM 4-aminopyridine, and the EPG's were further recorded during a 5 minute period. The EPG's with and without the presence of 4-aminopyridine were then compared with each other and to the EPG for wild-type (see the references mentioned in Example XII).
The number of “Kv4.3-like” AP's and the number of “normal” AP's during the 5 minute recording period were determined/counted from the recorded EPG's.
After exposure to the 4-aminopyridine, the number of “Kv4.3-like” AP's and the number of “normal” AP's during the 5 minute recording period were again determined/counted from the EPG recording.

Test [8] deals with hKv4.3 expressing C. elegans strain UG 1611. Kind of test: Pharynx pumping rate of hKv4.3 expressing exp-2 strain UG 1611. The arrangement: Change observed (pharynx pumping rate): dose or concentration left out as unconfirmed. Type of test: in vivo. The method, then: The influence of 4-aminopyridine, a known general antagonist of voltage-gated potassium channel, on the pharynx pumping rate of the hKv4.3 expressing C. elegans strain UG 1611 (Example IV) was determined as follows.
The nematodes were cultivated to L4 stage on an agar plate, and then kept overnight at 20° C. to reach the adult stage. […] After 3 hours at 20° C., the number of pharynx “pumps” (contractions) per 30 seconds were determined visually using a stopwatch. As a comparison, the influence of 4-aminopyridine on the original exp-2 background was also determined, in essentially the same manner.

[9] abbreviates: UG 1598, compared to UG1598 without compound.

On to `Nc1ccncc1` [4-aminopyridine], for which the “Uptake of fluorescent marker Calcein AM (drinking)” value is 109% in test [1] and 103% in test [2]. Besides, the “Change observed (pharynx pumping rate)” value in test [3] is given as “increase in”; in test [4] (pha-1, hKv4.3, 0,5 mM, 3 hrs), “increase in”; in test [8] (exp-2, hKv4.3, 3 hrs), “(small) decrease”. The “Influence on pharynx pumping rate (pumps per 30 seconds)” value in test [4] (strain UG 1598, 0,5 mM in agar plates, 3 hours at 20° C., FIG. 4) is “increases”; in test [5] it was “very little influence”; in test [6] it was “very little influence”; in test [8] (strain UG 1611, 2 mM in agar plates, 3 hours at 20° C., FIG. 5), “decreases”. Moreover, in test [4] (strain UG 1598, refers to Example VI), the “Pharynx pumping (as restated in Example XIII)” value was “reduction”. Also, the “Number of "normal" APs during the 5 minute recording period” value in test [7] (UG 1598, 4 pharynxes, before adding 14+/−12, P<0.0161) is 64+/−9. For the same compound, the “Relative number of "Kv4.3 like" AP's in EPG” value in test [7] (setting [9]) was “significant decrease”. In addition, the “Relative number of "normal" AP's in EPG” value in test [7] (setting [9]) was “corresponding increase”.
